Reference: PMC4279406, “Simultaneous targeting of PI3Kδ and a PI3Kδ-dependent MEK1/2-Erk1/2 pathway for therapy in pediatric B-cell acute lymphoblastic leukemia” (Oncotarget, 2014)

Legend:
Raji cells = assay: Cell cycle distribution (PI staining, FACS); assay type: cell-based, human; details: 24 h
Description: Figure 3 PI3Kδ inhibition led to blockade of B cell leukemia cells proliferation via induction of cell cycle arrest and apoptosis Raji cells treated with X-370 for indicated times and at serial diluted concentrations were subjected to Annexin V-FITC/PI staining (A) and PI staining (B) and FACS analysis to show cell apoptosis and cell cycle distribution respectively. (C) X-370 inhibited proliferation of human leukemia primary cells. Freshly isolated human primary mononuclear cells from bone marrow samples of patients were treated with X-370 for 72 h and cell viability was assayed using CCK-8 assay. IC50s of each sample were plotted where 10 μM was assigned to specimens with IC50 >10 μM. Each symbol represents an individual patient sample. […]

PI3Kγ = biological target: T1, PI3Kγ (Homo sapiens, UniProt P48736); assay: Kinase Profiler lipid kinase IC50; assay type: biochemical; details: ATP at Km of the isoform; 10-point half-log dilution from 1000 nM
T1 construct: purchased Millipore (Kinase Profiler Services, United Kingdom)
Description: (§1) Figure 1 Structure of X-370 and its inhibitory activity against lipid kinases (A) Chemical structure of X-370. (B) X-370 docked to the crystal structure of PI3Kδ. The model was generated based on the co-crystal structure of PI3Kδ and ZSTK474 (PDB ID: 2WXL). (C) IC50 of X-370 against PI3Kδ increased along with ATP concentration. […] Data was obtained from Kinase Profiler Services (Millipore, United Kingdom). Briefly, X-370 was solved in DMSO at a concentration of 10 mM, 10-point kinase inhibitory activity was measured over concentrations in a half-log dilution series started at 1000 nM with ATP at a concentration consistent with Km of each isoform of class I PI3K and IC50s were calculated. Relative kinase activity in the presence of 10 μM X-370 compared to DMSO control was measured for the rest of lipid kinases. TEXT PRINTED IN THE PICTURE: (D) X-370: IC50 (nM): 7 (Isoform: PI3Kδ); IC50 (nM): 433 (Isoform: PI3Kα); IC50 (nM): >1,000 (Isoform: PI3Kγ); IC50 (nM): >1,000 (Isoform: PI3Kβ); Relative Activity (%) X-370 (10 μM): 55 (Lipid Kinases: PI3KC2α); Relative Activity (%) X-370 (10 μM): 63 (Lipid Kinases: PI3KC2γ); Relative Activity (%) X-370 (10 μM): 105 (Lipid Kinases: PIP4K2α); Relative Activity (%) X-370 (10 μM): 100 (Lipid Kinases: PIP5K1α); Relative Activity (%) X-370 (10 μM): 103 (Lipid Kinases: PIP5K1γ) DOUBTS OF THE COPYIST ABOUT THIS PICTURE: Panel D, left table (Isoform / IC50): no substance label is printed in this table; assigned to X-370, the only label printed in the panel (head of the right table)
(§2) In vitro kinase profile assays were analyzed by the Kinase Profiler Service (Millipore, United Kingdom) following its guidelines. A GST-tagged human p110δ and regulatory full-length p85 were co-expressed in insect cell Sf9. Recombinant protein was extracted by affinity purification. The PI3K kinase activity was determined in the increasing concentration of ATP and X-370 with PI3-Kinase HTRF™ Assay kit (Millipore) as described previously.

PI3Kβ = biological target: T2, PI3Kβ (Homo sapiens, UniProt P42338); assay: Kinase Profiler lipid kinase IC50; assay type: biochemical; details: ATP at Km of the isoform; 10-point half-log dilution from 1000 nM
T2 construct: purchased Millipore (Kinase Profiler Services, United Kingdom)
Description: as §1, §2

PI3Kα = biological target: T3, PI3Kα (Homo sapiens, UniProt P42336); assay: Kinase Profiler lipid kinase IC50; assay type: biochemical; details: ATP at Km of the isoform; 10-point half-log dilution from 1000 nM
T3 construct: purchased Millipore (Kinase Profiler Services, United Kingdom)
Description: as §1, §2

PI3Kδ = PI3Kδ (Homo sapiens, UniProt O00329); assay: PI3-Kinase HTRF assay with increasing ATP; assay type: biochemical; set-up: GST; made in house; host or cells: Sf9 insect cells; details: IC50 increasing in concert with ATP levels
Description: Utilizing the crystal structure of PI3Kδ, we designed and synthesized a series of compounds in an effort to discover new potent and selective PI3Kδ inhibitors, which bind to PI3Kδ differently from CAL-101. […] The benzimidazole group of X-370 extends into the affinity pocket, where its nitrogen acts as a hydrogen bond acceptor for the primary amine of Lys779. The difluoromethyl group of X-370 points toward Pro758 in the hydrophobic affinity pocket. Instead of wedging between Met752 and Trp760, a binding mode utilized by CAL-101 to generate specificity against PI3Kδ (Figure S1), the pyrrole group of X-370 presses tightly against Trp760. These specific interactions of X-370 with p110δ confer a selective and potent inhibition of PI3Kδ. As expected, X-370 inhibited the kinase activity of PI3Kδ in an ATP-competitive manner, with IC50 increasing in concert with ATP levels (Figure 1C), confirming the binding of X-370 in the ATP pocket. […] More than 1000-fold selectivity was seen against other lipid kinases tested including PI3KC2α, PI3KC2γ, PIP4K2α, PIP5K1α and PIP5K1γ. […]
In vitro kinase profile assays were analyzed by the Kinase Profiler Service (Millipore, United Kingdom) following its guidelines. […] The PI3K kinase activity was determined in the increasing concentration of ATP and X-370 with PI3-Kinase HTRF™ Assay kit (Millipore) as described previously.

T2 sequence (P42338 whole entry, canonical isoform): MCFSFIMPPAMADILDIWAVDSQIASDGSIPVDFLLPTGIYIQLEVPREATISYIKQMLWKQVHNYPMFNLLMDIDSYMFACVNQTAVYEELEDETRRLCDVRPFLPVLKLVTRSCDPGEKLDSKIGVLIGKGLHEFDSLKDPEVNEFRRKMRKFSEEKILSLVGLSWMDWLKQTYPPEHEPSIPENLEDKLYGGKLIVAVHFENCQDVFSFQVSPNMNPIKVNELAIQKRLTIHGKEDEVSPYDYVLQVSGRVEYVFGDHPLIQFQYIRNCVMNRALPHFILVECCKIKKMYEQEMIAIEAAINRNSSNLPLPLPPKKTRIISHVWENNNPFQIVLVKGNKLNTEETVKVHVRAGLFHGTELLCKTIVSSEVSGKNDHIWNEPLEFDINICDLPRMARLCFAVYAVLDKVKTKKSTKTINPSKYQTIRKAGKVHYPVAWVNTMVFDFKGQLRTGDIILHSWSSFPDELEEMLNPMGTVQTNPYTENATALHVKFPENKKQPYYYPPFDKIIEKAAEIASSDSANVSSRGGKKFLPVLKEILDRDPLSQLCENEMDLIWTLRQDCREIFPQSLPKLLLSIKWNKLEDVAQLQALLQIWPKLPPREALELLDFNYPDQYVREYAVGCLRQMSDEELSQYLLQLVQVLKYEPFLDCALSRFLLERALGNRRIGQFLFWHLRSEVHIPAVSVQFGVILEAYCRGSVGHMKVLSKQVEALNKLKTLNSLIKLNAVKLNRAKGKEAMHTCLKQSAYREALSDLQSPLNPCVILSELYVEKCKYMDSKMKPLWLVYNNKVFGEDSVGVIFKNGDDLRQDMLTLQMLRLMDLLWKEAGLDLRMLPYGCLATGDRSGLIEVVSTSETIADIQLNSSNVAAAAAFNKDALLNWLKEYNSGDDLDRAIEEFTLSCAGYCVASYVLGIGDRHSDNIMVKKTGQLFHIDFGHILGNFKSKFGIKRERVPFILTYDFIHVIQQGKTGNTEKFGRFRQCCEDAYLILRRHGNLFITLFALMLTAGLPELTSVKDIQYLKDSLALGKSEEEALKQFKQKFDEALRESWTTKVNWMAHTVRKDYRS
T2 sequence (P27986 whole entry partner, canonical isoform): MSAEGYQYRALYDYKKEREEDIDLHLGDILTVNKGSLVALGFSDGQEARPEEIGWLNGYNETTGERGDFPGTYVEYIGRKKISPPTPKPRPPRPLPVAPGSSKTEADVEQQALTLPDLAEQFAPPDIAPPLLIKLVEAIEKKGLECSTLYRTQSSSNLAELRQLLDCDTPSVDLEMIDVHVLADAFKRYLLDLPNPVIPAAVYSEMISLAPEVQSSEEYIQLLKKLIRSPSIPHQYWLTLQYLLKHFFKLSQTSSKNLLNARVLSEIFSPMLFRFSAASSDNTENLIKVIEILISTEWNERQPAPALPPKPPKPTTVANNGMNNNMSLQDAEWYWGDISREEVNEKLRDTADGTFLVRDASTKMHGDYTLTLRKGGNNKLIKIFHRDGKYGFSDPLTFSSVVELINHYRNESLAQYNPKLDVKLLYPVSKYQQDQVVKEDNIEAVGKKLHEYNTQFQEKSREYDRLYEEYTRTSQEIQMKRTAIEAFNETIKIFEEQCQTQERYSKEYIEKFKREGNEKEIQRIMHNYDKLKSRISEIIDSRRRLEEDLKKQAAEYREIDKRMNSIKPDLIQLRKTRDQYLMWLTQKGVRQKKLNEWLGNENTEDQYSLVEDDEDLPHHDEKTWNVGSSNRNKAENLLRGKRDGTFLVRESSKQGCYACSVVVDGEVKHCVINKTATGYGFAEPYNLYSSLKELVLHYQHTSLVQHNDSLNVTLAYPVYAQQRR
T1 sequence (P48736 whole entry, canonical isoform): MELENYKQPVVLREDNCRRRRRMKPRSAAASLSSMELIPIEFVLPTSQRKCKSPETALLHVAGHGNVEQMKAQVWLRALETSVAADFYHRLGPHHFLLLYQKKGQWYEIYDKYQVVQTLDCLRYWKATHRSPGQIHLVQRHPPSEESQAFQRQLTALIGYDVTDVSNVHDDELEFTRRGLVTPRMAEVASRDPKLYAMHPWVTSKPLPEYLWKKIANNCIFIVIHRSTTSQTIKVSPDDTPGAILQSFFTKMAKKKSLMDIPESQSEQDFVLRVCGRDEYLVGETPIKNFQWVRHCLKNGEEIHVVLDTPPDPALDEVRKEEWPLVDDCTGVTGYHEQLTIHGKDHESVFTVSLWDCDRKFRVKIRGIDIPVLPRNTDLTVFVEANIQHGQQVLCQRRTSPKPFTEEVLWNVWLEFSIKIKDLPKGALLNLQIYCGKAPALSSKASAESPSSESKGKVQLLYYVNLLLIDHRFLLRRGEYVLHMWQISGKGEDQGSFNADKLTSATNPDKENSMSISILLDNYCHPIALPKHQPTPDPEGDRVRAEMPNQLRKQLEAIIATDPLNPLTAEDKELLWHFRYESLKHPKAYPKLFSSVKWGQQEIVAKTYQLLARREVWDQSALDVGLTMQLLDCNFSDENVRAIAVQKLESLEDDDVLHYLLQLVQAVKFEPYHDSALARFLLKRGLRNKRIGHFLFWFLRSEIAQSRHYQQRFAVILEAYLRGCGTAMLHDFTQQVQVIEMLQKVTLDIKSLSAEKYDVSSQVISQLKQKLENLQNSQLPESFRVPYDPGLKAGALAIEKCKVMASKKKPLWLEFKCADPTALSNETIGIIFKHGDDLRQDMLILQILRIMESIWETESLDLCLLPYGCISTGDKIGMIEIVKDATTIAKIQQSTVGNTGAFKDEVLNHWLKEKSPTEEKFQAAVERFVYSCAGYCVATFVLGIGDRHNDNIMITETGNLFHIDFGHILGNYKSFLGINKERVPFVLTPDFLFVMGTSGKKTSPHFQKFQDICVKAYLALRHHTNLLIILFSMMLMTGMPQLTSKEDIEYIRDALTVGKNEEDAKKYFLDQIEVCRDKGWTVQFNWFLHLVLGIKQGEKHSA
T3 sequence (P42336 whole entry, canonical isoform): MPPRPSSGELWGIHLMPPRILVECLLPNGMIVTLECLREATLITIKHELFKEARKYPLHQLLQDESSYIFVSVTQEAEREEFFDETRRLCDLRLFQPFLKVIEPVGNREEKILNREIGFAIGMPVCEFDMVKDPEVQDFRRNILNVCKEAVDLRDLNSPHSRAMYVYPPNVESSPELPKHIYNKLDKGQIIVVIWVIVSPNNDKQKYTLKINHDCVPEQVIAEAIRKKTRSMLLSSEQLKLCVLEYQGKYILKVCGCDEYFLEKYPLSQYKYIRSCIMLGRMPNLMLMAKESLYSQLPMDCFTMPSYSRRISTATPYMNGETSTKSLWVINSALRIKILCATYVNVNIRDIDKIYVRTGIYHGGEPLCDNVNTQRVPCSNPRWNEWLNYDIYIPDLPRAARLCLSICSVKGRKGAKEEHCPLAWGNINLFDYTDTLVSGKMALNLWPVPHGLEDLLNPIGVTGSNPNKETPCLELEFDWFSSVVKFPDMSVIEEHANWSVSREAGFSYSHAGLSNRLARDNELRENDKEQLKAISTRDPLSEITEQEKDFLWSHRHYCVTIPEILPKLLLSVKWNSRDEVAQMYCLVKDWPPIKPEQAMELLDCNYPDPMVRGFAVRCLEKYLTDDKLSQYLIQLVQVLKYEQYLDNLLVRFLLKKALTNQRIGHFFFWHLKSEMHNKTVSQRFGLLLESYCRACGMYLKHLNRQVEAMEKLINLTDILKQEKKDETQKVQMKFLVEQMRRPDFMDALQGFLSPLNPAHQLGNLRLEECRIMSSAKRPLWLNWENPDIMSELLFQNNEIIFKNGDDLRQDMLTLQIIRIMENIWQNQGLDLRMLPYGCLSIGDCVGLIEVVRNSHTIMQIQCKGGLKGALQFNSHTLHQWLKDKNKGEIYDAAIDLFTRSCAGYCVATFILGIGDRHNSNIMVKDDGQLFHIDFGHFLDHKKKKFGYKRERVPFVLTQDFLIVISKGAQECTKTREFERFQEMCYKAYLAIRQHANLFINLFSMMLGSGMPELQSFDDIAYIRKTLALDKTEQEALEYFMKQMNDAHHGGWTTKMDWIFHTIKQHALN
T3 sequence (P27986 whole entry partner, canonical isoform): as the sequence (P27986 whole entry partner, canonical isoform) above
PI3Kδ, sequence (O00329 whole entry): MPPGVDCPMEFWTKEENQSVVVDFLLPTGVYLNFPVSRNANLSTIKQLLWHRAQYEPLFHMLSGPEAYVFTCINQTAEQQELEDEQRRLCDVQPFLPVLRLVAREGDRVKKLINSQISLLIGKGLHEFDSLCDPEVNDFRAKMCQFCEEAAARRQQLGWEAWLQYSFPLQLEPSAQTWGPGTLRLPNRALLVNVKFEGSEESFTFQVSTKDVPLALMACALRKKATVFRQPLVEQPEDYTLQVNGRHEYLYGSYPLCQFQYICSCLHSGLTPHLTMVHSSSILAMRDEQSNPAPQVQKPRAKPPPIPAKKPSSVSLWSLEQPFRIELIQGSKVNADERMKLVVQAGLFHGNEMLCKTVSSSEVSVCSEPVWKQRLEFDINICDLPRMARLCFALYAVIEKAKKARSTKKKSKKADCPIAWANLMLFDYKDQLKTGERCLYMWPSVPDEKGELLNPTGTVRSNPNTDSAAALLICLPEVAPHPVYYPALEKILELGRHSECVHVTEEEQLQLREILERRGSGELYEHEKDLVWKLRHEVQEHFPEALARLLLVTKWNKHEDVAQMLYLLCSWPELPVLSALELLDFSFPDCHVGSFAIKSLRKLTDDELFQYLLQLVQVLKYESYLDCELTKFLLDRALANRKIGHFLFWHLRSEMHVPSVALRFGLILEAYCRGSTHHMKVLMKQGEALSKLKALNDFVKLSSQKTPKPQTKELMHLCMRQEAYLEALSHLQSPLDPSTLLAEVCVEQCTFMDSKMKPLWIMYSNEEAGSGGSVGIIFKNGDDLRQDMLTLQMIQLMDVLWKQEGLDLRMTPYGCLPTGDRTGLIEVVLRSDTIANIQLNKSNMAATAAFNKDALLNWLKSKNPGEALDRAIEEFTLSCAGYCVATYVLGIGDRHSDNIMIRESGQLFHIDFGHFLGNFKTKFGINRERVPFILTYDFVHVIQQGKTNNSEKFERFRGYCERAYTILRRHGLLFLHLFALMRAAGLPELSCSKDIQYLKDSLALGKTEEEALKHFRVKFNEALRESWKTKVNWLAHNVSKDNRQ
PI3Kδ, sequence (P27986 whole entry partner): as the sequence (P27986 whole entry partner, canonical isoform) above

IC50 (PI3Kγ): > 1 µM
IC50 (PI3Kβ): > 1 µM
IC50 (PI3Kα): 0.433 µM
manner of inhibition of PI3Kδ kinase activity (PI3Kδ): ATP-competitive
Compound: O=C(N1CCCC1)N1CCC(n2cnc3c(-n4c(C(F)F)nc5ccccc54)nc(N4CCOCC4)nc32)CC1 [X-370]
cell cycle distribution (Raji cells): increase in cell population in G1 phase
